Test results taken from PubChem BioAssay (NCI).
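Following 48 hours of exposure in 96-well plates, responses at five concentrations were used to interpolate endpoints linearly. TGI: concentration producing complete growth inhibition.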

How the values were obtained:
Assay in all cases: NCI tumour cell line growth inhibition, 48 h
CCRF-CEM leukemia = tested on: CCRF-CEM leukemia
SK-OV-3 ovarian = tested on: SK-OV-3 ovarian
PC-3 prostate = tested on: PC-3 prostate
KM12 colon = tested on: KM12 colon
SK-MEL-2 melanoma = tested on: SK-MEL-2 melanoma
BT-549 breast = tested on: BT-549 breast
U251 CNS = tested on: U251 CNS
A498 renal = tested on: A498 renal
UACC-62 melanoma = tested on: UACC-62 melanoma
SF-268 CNS = tested on: SF-268 CNS

Row | Compound | TGI (CCRF-CEM leukemia) | TGI (SK-OV-3 ovarian) | TGI (PC-3 prostate) | TGI (KM12 colon) | TGI (SK-MEL-2 melanoma) | TGI (BT-549 breast) | TGI (U251 CNS) | TGI (A498 renal) | TGI (UACC-62 melanoma) | TGI (SF-268 CNS)
1 | CC(C)=CCC[C@@H](C)C1=C(O)C(Nc2ccccc2F)=C(C)C(=O)C1=O | 5.86 µM | > 100 µM | > 100 µM | > 100 µM | 68.3 µM | > 79.7 µM | > 100 µM | 67.2 µM | > 79.3 µM | > 54 µM
2 | Nc1ccc(S(=O)(=O)c2ccc(N=[N+]([O-])c3ccc(S(=O)(=O)c4ccc(N)cc4)cc3)cc2)cc1 | > 100 µM | > 90.6 µM | > 100 µM | > 100 µM | > 94.2 µM | > 65.6 µM | > 57.3 µM | > 85.1 µM | > 100 µM | > 45.9 µM
3 | CCOc1ccc(-n2c(=O)n3c(Nc4ccc(Cl)cc4)nc4c(c(=O)n(C)c(=O)n4C)n3c2=O)cc1 | 52.9 µM | – | > 100 µM | 30.9 µM | > 100 µM | 64.3 µM | > 100 µM | 39.4 µM | 46.3 µM | > 100 µM
4 | OC(C1CCCC1=N/N=C1/CCCC1C(O)(C(F)(F)Cl)C(F)(F)Cl)(C(F)(F)Cl)C(F)(F)Cl (configuration not stated) | > 10 µM | > 10 µM | > 10 µM | > 10 µM | > 10 µM | > 10 µM | > 10 µM | > 10 µM | > 10 µM | > 10 µM
5 | COC(=O)Nc1nc2ccc(NS(=O)(=O)c3ccc(F)cc3)cc2[nH]1 | > 100 µM | > 100 µM | > 100 µM | 74.7 µM | > 100 µM | > 100 µM | > 100 µM | > 100 µM | > 100 µM | > 100 µM
6 | CC1(C)OCC(C2OC(=O)C(OCc3ccccc3)=C2OCc2ccccc2)O1 (configuration not stated) | > 100 µM | > 100 µM | 78.1 µM | > 100 µM | 61 µM | 93.2 µM | > 100 µM | 90.5 µM | > 100 µM | > 100 µM
7 | CC(=N\N=C\c1ccccn1)/C(C)=N/N=C/c1ccccn1 | > 100 µM | > 100 µM | > 100 µM | > 100 µM | > 100 µM | > 100 µM | > 100 µM | > 100 µM | – | > 100 µM
8 | CC1=NN(c2cccc(Cl)c2)C2(C1)SCC(=O)N2c1nc2ccccc2s1 (configuration not stated) | 62.6 µM | 85.3 µM | 65.1 µM | 69.2 µM | 49.2 µM | > 100 µM | 75.2 µM | 89.8 µM | > 100 µM | > 100 µM
9 | CCC(C)N1CN(c2ccccc2)C2(CCN(CCCC(=O)c3ccc(F)cc3)CC2)C1=O (configuration not stated) | > 100 µM | 21.5 µM | 23.1 µM | – | 28.7 µM | 26 µM | 16.9 µM | 16.8 µM | 32.9 µM | 29 µM
10 | Nc1nc(SCc2ccccc2[N+](=O)[O-])c2[nH]cnc2n1 | > 94.5 µM | > 100 µM | > 100 µM | > 100 µM | 90.3 µM | > 100 µM | > 100 µM | 48.3 µM | > 100 µM | > 84.6 µM
11 | CN(C)Cc1cc(C(=O)/C=C/c2c(F)cccc2Cl)cc(CN(C)C)c1O | 24.1 µM | 28.3 µM | 29.5 µM | 30.4 µM | 35.5 µM | 21.8 µM | 28.9 µM | 21 µM | 26.1 µM | 23.5 µM
12 | O=C1O[C@H](COC(=O)c2ccccc2)[C@@H](OC(=O)c2ccccc2)C=C1OC(=O)c1ccccc1 | 41.9 µM | > 100 µM | 62.7 µM | > 100 µM | 50.8 µM | 43.7 µM | 32.3 µM | > 100 µM | 49.6 µM | 36.8 µM
13 | COc1ccc(C2c3c(-c4ccccc4)nn(-c4ccccc4)c3Oc3ncn(N)c(=N)c32)cc1OC (configuration not stated) | > 100 µM | 21.6 µM | 4.08 µM | 3.33 µM | 3.51 µM | 15 µM | > 100 µM | 26 µM | 3.72 µM | 10.4 µM
14 | Cc1ccc(N2C(=O)C(O)=C(C(=O)C(C)(C)C)C2c2ccc([N+](=O)[O-])cc2)cc1 (configuration not stated) | > 100 µM | 57.2 µM | > 100 µM | 67.3 µM | 58.5 µM | 39 µM | > 100 µM | 68.9 µM | 37.2 µM | 47.8 µM
15 | CCOC(=S)SC/C(=N\OC(C)(C)OC)c1ccccc1 | 44.5 µM | > 100 µM | > 100 µM | > 100 µM | 43.9 µM | > 100 µM | > 100 µM | > 100 µM | > 100 µM | > 100 µM
